Columns and labels:
[1] = molecular target: T1, human TRPV1 receptor (hTRPV1) (Homo sapiens (Human), UniProt Q8NER1); experiment: Acid activation assay (pH 5.0, FLIPR intracellular Ca2+); assay type: cell-based; settings: Table 1; 37.5 μM antagonist, percentage of the maximal pH 5.0-induced response remaining; read-out: hTRPV1 H+ (max % remain)
Procedure, shortened: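 1321N1 astrocytoma cells stably expressing homomeric hTRPV1, loaded with Calcium-4 dye 90–120 min at 25 °C. Compounds, 12-point half-log range, added 3 min before pH 5.0 DPBS/MES challenge; intracellular Ca2+ read by FLIPR fluorescence.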

[2] = molecular target: T1, human TRPV1 receptor (hTRPV1); experiment: Capsaicin activation assay (FLIPR intracellular Ca2+); assay type: cell-based; settings: Table 1; inhibition of capsaicin-induced intracellular Ca2+ increase, HEK293 cells expressing human TRPV1; read-out: hTRPV1 cap IC50
Procedure, shortened: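 HEK293 cells stably expressing human TRPV1, loaded with Calcium-4 dye 90–120 min at room temperature, preincubated 3 min with compound (12-point one-third-log range) before capsaicin (200 nM as 4× solution). Peak FLIPR fluorescence minus baseline expressed as percent of 50 nM capsaicin control response.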

T1 sequence (Q8NER1 whole entry): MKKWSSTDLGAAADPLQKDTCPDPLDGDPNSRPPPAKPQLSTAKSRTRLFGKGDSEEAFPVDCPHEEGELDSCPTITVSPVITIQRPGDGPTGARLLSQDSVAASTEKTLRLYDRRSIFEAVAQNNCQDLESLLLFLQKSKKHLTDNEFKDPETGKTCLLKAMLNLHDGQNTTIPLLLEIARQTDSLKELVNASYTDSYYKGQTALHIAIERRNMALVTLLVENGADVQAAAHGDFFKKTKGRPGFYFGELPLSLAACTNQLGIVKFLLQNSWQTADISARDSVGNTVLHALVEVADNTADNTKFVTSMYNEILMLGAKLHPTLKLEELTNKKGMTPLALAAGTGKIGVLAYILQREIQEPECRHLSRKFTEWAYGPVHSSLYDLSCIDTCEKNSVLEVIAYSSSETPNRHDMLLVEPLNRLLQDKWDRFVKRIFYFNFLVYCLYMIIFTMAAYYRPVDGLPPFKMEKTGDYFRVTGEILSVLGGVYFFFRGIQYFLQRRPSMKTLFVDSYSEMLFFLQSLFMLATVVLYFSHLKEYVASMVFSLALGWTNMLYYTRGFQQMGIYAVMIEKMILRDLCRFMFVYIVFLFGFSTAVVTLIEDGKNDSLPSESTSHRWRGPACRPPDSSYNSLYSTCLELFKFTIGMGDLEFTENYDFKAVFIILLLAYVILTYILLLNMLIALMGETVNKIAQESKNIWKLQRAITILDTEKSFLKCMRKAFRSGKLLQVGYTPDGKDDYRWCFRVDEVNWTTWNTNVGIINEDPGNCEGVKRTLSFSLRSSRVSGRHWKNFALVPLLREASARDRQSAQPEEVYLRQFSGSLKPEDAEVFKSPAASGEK

Structure (SMILES) | remaining activity at 37.5 µM [1] | IC50 [2]
O=C(Nc1ccc2c(c1)NC(=O)C(N1CCCOCC1)C2)N[C@@H]1CC[C@H](c2ccccc2)C1 (stereo partly drawn) [Example 143, 1-[3-(1,4-oxazepan-4-yl)-2-oxo-1,2,3,4-tetrahydroquinolin-7-yl]-3-[(1R,3S)-3-phenylcyclopentyl]urea] | 24% | 145 nM
O=C(Nc1cccc2c1C[C@@H](O)C2)N[C@H]1CC[C@@H](c2cccc(F)c2)C1 [Example 87, 1-[(1S,3R)-3-(3-fluorophenyl)cyclopentyl]-3-[(2S)-2-hydroxy-2,3-dihydro-1H-inden-4-yl]urea] | 17% | 248 nM
O=C(Nc1cccc2c1C[C@H](O)CC2)N[C@@H]1CC[C@H](c2ccccc2)C1 [Compound G, 1-[(7R)-7-hydroxy-5,6,7,8-tetrahydronaphthalen-1-yl]-3-[(1R,3S)-3-phenylcyclopentyl]urea, reference compound] | 2% | 4 nM
Cc1cc2c(NC(=O)N[C@H]3CC[C@H](c4ccccc4F)C3)c(F)ccc2cn1 [Example 71, 1-(6-fluoro-3-methylisoquinolin-5-yl)-3-[(1S,3S)-3-(2-fluorophenyl)cyclopentyl]urea] | 15% | 8.6 nM
CN1C(=O)CCc2ccc(NC(=O)N[C@H]3CC[C@@H](c4cccc(F)c4)C3)cc21 [Example 108, 1-[(1S,3R)-3-(3-fluorophenyl)cyclopentyl]-3-(1-methyl-2-oxo-1,2,3,4-tetrahydroquinolin-7-yl)urea] | 88% | 804 nM
O=C(Nc1cccc2[nH]ncc12)NC1CCCC(c2ccc(C(F)(F)F)cc2)C1 (stereo not drawn) [Example 30, 1-(1H-indazol-4-yl)-3-{3-[4-(trifluoromethyl)phenyl]cyclohexyl}urea] | 26% | 1050 nM
Cc1cc2c(NC(=O)N[C@@H]3CC[C@H](c4cccc(F)c4)C3)c(F)ccc2cn1 [Example 76, 1-(6-fluoro-3-methylisoquinolin-5-yl)-3-[(1R,3S)-3-(3-fluorophenyl)cyclopentyl]urea] | 9% | 2 nM
Cn1c(=O)ccc2c(NC(=O)N[C@H]3CC[C@H](c4ccccc4)C3)cccc21 [Example 118, 1-(1-methyl-2-oxo-1,2-dihydroquinolin-5-yl)-3-[(1S,3S)-3-phenylcyclopentyl]urea] | 50% | > 37500 nM
CN(C)c1ccc([C@H]2CCC(NC(=O)Nc3cccc4[nH]ncc34)C2)cc1 (stereo partly drawn) [Example 47, 1-{(3S)-3-[4-(dimethylamino)phenyl]cyclopentyl}-3-(1H-indazol-4-yl)urea] | 3% | 290 nM
O=C(Nc1cccc2c1C[C@H](O)C2)N[C@@H]1CC[C@@H](c2ccccc2F)C1 [Example 92, 1-[(1R,3R)-3-(2-fluorophenyl)cyclopentyl]-3-[(2R)-2-hydroxy-2,3-dihydro-1H-inden-4-yl]urea] | 66% | 79 nM
O=C(Nc1cccc2[nH]ncc12)N[C@H]1CC[C@@H](c2ccc(C(F)(F)F)cc2)C1 [Example 43, 1-(1H-indazol-4-yl)-3-{(1S,3R)-3-[4-(trifluoromethyl)phenyl]cyclopentyl}urea] | 55% | 221 nM
CN1CCOc2ccc(NC(=O)N[C@@H]3CC[C@H](c4ccccc4)C3)cc21 [Example 145, 1-(4-methyl-3,4-dihydro-2H-1,4-benzoxazin-6-yl)-3-[(1R,3S)-3-phenylcyclopentyl]urea] | 91% | 614 nM
O=C(Nc1ccc2c(c1)NC(=O)N(CCO)C2)N[C@H]1CC[C@@H](c2ccccc2F)C1 [Example 117, 1-[(1S,3R)-3-(2-fluorophenyl)cyclopentyl]-3-[3-(2-hydroxyethyl)-2-oxo-1,2,3,4-tetrahydroquinazolin-7-yl]urea] | 47% | 804 nM
O=C(Nc1cccc2c1CCC2)N[C@H]1CC[C@H](c2ccccc2)C1 [Example 112, 1-(2,3-dihydro-1H-inden-4-yl)-3-[(1S,3S)-3-phenylcyclopentyl]urea] | 35% | 1370 nM
O=C(Nc1cccc2c1C[C@H](O)C2)N[C@@H]1CC[C@H](c2ccccc2)C1 [Example 1, 1-[(2R)-2-hydroxy-2,3-dihydro-1H-inden-4-yl]-3-[(1R,3S)-3-phenylcyclopentyl]urea] | 93% | 106 nM
O=C(Nc1cccc2[nH]ncc12)N[C@H]1C[C@@H](c2ccccc2)[C@@H](O)[C@H]1O [Example 52, 1-((1S,2S,3R,4S)-2,3-dihydroxy-4-phenylcyclopentyl)-3-(1H-indazol-4-yl)urea] | 67% | 22400 nM
O=C(Nc1cccc2[nH]ncc12)N[C@H]1C[C@@H](c2ccccc2)C1 [Example 56, 1-(1H-indazol-4-yl)-3-(cis-3-phenylcyclobutyl)urea] | 10% | 14 nM

Structure (SMILES) | remaining activity at 37.5 µM [1] | IC50 [2]
O=C(Nc1cccc2c1C[C@@H](O)CC2)N[C@H]1CC[C@@H](c2ccccc2)C1 [Compound B, 1-[(7S)-7-hydroxy-5,6,7,8-tetrahydronaphthalen-1-yl]-3-[(1S,3R)-3-phenylcyclopentyl]urea, reference compound] | 1% | 6 nM
O=C(Nc1ccc2c(c1)NCCO2)N[C@@H]1CC[C@H](c2ccccc2)C1 [Example 146, 1-(3,4-dihydro-2H-1,4-benzoxazin-6-yl)-3-[(1R,3S)-3-phenylcyclopentyl]urea] | 39% | > 37500 nM
Cc1cc2c(NC(=O)N[C@@H]3CC[C@@H](c4nc(C)cs4)C3)c(F)ccc2cn1 [Example 133, 1-(6-fluoro-3-methylisoquinolin-5-yl)-3-[(1R,3R)-3-(4-methyl-1,3-thiazol-2-yl)cyclopentyl]urea] | 16% | 507 nM
Cc1cc2c(NC(=O)N[C@@H]3CC[C@@H](c4cccc(F)c4)C3)c(F)ccc2cn1 [Example 84, 1-(6-fluoro-3-methylisoquinolin-5-yl)-3-[(1R,3R)-3-(3-fluorophenyl)cyclopentyl]urea] | 13% | 5.4 nM
O=C(Nc1cccc2c1C[C@@H](O)C2)N[C@@H]1CC[C@@H](c2cccc(F)c2)C1 [Example 86, 1-[(1R,3R)-3-(3-fluorophenyl)cyclopentyl]-3-[(2S)-2-hydroxy-2,3-dihydro-1H-inden-4-yl]urea] | 0% | 80 nM
COc1ccc(C2CCC(NC(=O)Nc3cccc4[nH]ncc34)C2)cc1 (stereo not drawn) [Example 40, 1-(1H-indazol-4-yl)-3-[3-(4-methoxyphenyl)cyclopentyl]urea] | 1% | 78 nM
O=C(Nc1cccc2[nH]ncc12)N[C@H]1CC[C@H](c2ccccc2F)C1 [Example 62, 1-[(1S,3S)-3-(2-fluorophenyl)cyclopentyl]-3-(1H-indazol-4-yl)urea] | 5% | 10 nM
Cc1cc2c(NC(=O)N[C@@H]3CC[C@@](C)(c4ccccc4)C3)c(F)ccc2cn1 [Example 75, 1-(6-fluoro-3-methylisoquinolin-5-yl)-3-[(1R,3R)-3-methyl-3-phenylcyclopentyl]urea] | 16% | 21 nM
O=C(Nc1cccc2c1C[C@@H](O)C2)N[C@@H]1CC[C@@H](c2ccccc2F)C1 [Example 88, 1-[(1R,3R)-3-(2-fluorophenyl)cyclopentyl]-3-[(2S)-2-hydroxy-2,3-dihydro-1H-inden-4-yl]urea] | 16% | 20 nM
O=C(Nc1cccc2[nH]ncc12)N[C@@H]1C[C@H](c2ccccc2)[C@@H]2C[C@@H]21 [Example 55, 1-(1H-indazol-4-yl)-3-((1S,2R,4S,5S)-4-phenylbicyclo[3.1.0]hex-2-yl)urea] | 11% | 37 nM
Cc1cc2c(NC(=O)N[C@H]3CC[C@@H](c4nc(C)cs4)C3)c(F)ccc2cn1 [Example 135, 1-(6-fluoro-3-methylisoquinolin-5-yl)-3-[(1S,3R)-3-(4-methyl-1,3-thiazol-2-yl)cyclopentyl]urea] | 57% | 1790 nM
Cc1cc2c(NC(=O)N[C@@H]3CC[C@H](c4nc(C)cs4)C3)c(F)ccc2cn1 [Example 132, 1-(6-fluoro-3-methylisoquinolin-5-yl)-3-[(1R,3S)-3-(4-methyl-1,3-thiazol-2-yl)cyclopentyl]urea] | 40% | 324 nM
C[C@H]1Oc2c(NC(=O)N[C@@H]3CC[C@@H](c4ccccc4)C3)cccc2NC1=O [Example 17, 1-[(2R)-2-methyl-3-oxo-3,4-dihydro-2H-1,4-benzoxazin-8-yl]-3-[(1R,3R)-3-phenylcyclopentyl]urea] | 25% | 373 nM
O=C(Nc1cccc2c1C[C@@H](O)C2)N[C@H]1CC[C@@H](c2ccccc2)C1 [Example 23, 1-[(2S)-2-hydroxy-2,3-dihydro-1H-inden-4-yl]-3-[(1S,3R)-3-phenylcyclopentyl]urea] | 88% | 138 nM
O=C(Nc1cccc2[nH]ncc12)N[C@@H]1CC[C@@H](c2ccc(C(F)(F)F)cc2)C1 [Example 44, 1-(1H-indazol-4-yl)-3-{(1R,3R)-3-[4-(trifluoromethyl)phenyl]cyclopentyl}urea] | 13% | 169 nM
O=C(Nc1cccc2c1CCCC2)N[C@@H]1CC[C@H](c2ccccc2)C1 [Example 138, 1-[(1R,3S)-3-phenylcyclopentyl]-3-(5,6,7,8-tetrahydronaphthalen-1-yl)urea] | 0% | 156 nM

— patent US8802711B2, “TRPV1 antagonists” (AbbVie Inc., priority 2011, dated 2014)
